The source made the active and inactive calls. The calls are words filed in the database; no cut-off is given here.
How the values were obtained:
[1] = Clearance in mouse liver microsomes incubated upto 45 mins in presence of NADPH by LC-MS/MS analysis; type: ADME, Microsome; conditions: read-out: CLH
[2] = Half life in mouse liver microsomes incubated upto 45 mins in presence of NADPH by LC-MS/MS analysis; type: ADME, Microsome
[3] = system: Plasmodium falciparum; assay: Antiplasmodial activity against Plasmodium falciparum GB4 infected in human erythrocytes assessed as reduction in parasite growth incubated for 72 hrs by Giemsa staining based light microscopic method; type: functional, organism-based; conditions: GB4, Erythrocyte
[4] = system: HepG2; assay: Cytotoxicity against human HepG2 cells assessed as reduction in cell viability incubated for 72 hrs by cell titer glo assay; type: cell-based; conditions: HepG2, 72 h
[5] = system: Plasmodium falciparum; assay: Antiplasmodial activity against artemisinin-resistant ring stage Plasmodium falciparum 6320 infected in human erythrocytes assessed as reduction in parasite growth incubated for 72 hrs by Giemsa staining based light microscopic method; type: functional, organism-based; conditions: Plasmodium falciparum, 6320, Erythrocyte
[6] = Selectivity index, ratio of IC50 for cytotoxicity against human HepG2 cells assessed to IC50 for antiplasmodial activity against synchronized ring stage Plasmodium falciparum 3D7 infected in human erythrocytes; type: toxicity, cell-based; conditions: read-out: Ratio IC50
[7] = system: Plasmodium yoelii; assay: Antiplasmodial activity against blood stage Plasmodium yoelii infected in Balb/c mouse assessed as reduction in parasitemia at 10 to 30 mg/kg, ip QD for 5 consecutive days and measured on day 20 by microscopic analysis; type: functional, organism-based; conditions: dose 10-30 mg/kg, time 5.0 day
[8] = Selectivity index, ratio of IC50 for cytotoxicity against human HEK293T cells assessed to IC50 for antiplasmodial activity against synchronized ring stage Plasmodium falciparum 3D7 infected in human erythrocytes; type: toxicity, cell-based; conditions: read-out: Ratio IC50
[9] = system: HEK-293T; assay: Cytotoxicity against human HEK293T cells assessed as reduction in cell viability incubated for 72 hrs by cell titer glo assay; type: cell-based
[10] = system: Plasmodium falciparum; assay: Antiplasmodial activity against synchronized ring stage Plasmodium falciparum 3D7 infected in human erythrocytes assessed as reduction in parasite growth incubated for 72 hrs by Giemsa staining based light microscopic method; type: functional, organism-based; conditions: 3D7, Erythrocyte
[11] = Toxicity in Balb/c mouse infected with blood stage Plasmodium yoelii assessed as recrudescence at 10 to 30 mg/kg, ip QD for 5 consecutive days and measured on day 20; type: organism-based; conditions: in vivo, 120 h, dose 10-30 mg/kg, time 5 day
[12] = system: Plasmodium falciparum; assay: Antiplasmodial activity against Plasmodium falciparum CP286 infected in human erythrocytes assessed as reduction in parasite growth incubated for 72 hrs by Giemsa staining based light microscopic method; type: functional, organism-based; conditions: CP286, Erythrocyte
[13] = system: Plasmodium falciparum; assay: Antiplasmodial activity against synchronized ring stage Plasmodium falciparum Dd2 infected in human erythrocytes assessed as reduction in parasite growth incubated for 72 hrs by Giemsa staining based light microscopic method; type: functional, organism-based; conditions: Dd2, Erythrocyte
[14] = system: Plasmodium falciparum; assay: Antiplasmodial activity against artemisinin-resistant Plasmodium falciparum 6218 infected in human erythrocytes assessed as reduction in parasite growth incubated for 72 hrs by Giemsa staining based light microscopic method; type: functional, organism-based; conditions: Plasmodium falciparum, 6218, Erythrocyte
[15] = Toxicity in Balb/c mouse infected with blood stage Plasmodium yoelii assessed as animal death at 10 to 30 mg/kg, ip QD for 5 consecutive days and measured on day 6; type: organism-based; conditions: in vivo, 120 h, dose 10-30 mg/kg, time 5 day
[16] = system: Plasmodium falciparum; assay: Antiplasmodial activity against Plasmodium falciparum C2A infected in human erythrocytes assessed as reduction in parasite growth incubated for 72 hrs by Giemsa staining based light microscopic method; type: functional, organism-based; conditions: Erythrocyte
[17] = AUC (0 to infinity) in Balb/c mouse at 10 mg/kg, po administered as single dose measured upto 24 hrs by LC-MS/MS analysis; type: ADME, organism-based; parameters: route oral, dose 10 mg/kg, time <=24; conditions: in vivo
[18] = system: Plasmodium falciparum; assay: Antiplasmodial activity against schizont stage Plasmodium falciparum 3D7 infected in human erythrocytes assessed as reduction in parasitemia at 10 times IC50 incubated for 12 hrs followed by compound washout and measured at 96 hrs post infection by […] analysis; type: functional, organism-based; conditions: Erythrocyte
[19] = Toxicity in Balb/c mouse infected with sporozoites liver stage Plasmodium berghei assessed as animal death at 30 mg/kg, ip administered as single dose and measured after 2 hrs; type: organism-based; conditions: in vivo
[20] = system: Plasmodium falciparum; assay: Antiplasmodial activity against artemisinin-resistant Plasmodium falciparum 6218 assessed as reduction in parasite survival at 700 nM incubated for 6 hrs followed by compound washout thrice and further cultured in compound free medium for 66 hrs by RSA; type: functional, organism-based
[21] = Cmax in Balb/c mouse at 5 mg/kg, ip administered as single dose measured upto 24 hrs by LC-MS/MS analysis; type: ADME, organism-based; parameters: route intraperitoneal, dose 5 mg/kg, time <=24; conditions: in vivo
[22] = Apparent volume of distribution during terminal phase in Balb/c mouse at 5 mg/kg, ip administered as single dose measured upto 24 hrs by LC-MS/MS analysis; type: ADME, organism-based; conditions: Balb/c, in vivo, read-out: Vz/F
[23] = Apparent volume of distribution during terminal phase in Balb/c mouse at 10 mg/kg, po administered as single dose measured upto 24 hrs by LC-MS/MS analysis; type: ADME, organism-based; conditions: in vivo
[24] = system: Plasmodium falciparum; assay: Antiplasmodial activity against synchronized ring stage Plasmodium falciparum 3D7 infected in human erythrocytes assessed as new ring stage formation at 10 times IC50 incubated for 12 hrs followed by compound washout and measured at 50 hrs by […] analysis; type: functional, organism-based; conditions: Erythrocyte
[25] = system: Plasmodium falciparum; assay: (§1) Antimalarial activity against synchronized schizont stage transgenic Plasmodium falciparum 3D7 with C-terminal 3xTY1-fused HDAC1 knockdown assessed as parasite growth inhibition pretreated with glucosamine followed by compound treatment and incubated for 4 hrs followed by compound washout for thrice and subsequent culturing for 68 hrs by SYBR Green 1 staining based analysis; type: functional, organism-based
[26] = system: Plasmodium falciparum; assay: as §1, with “glmS-fused HDAC2” for “3xTY1-fused HDAC1”; type: functional, organism-based
[27] = system: Plasmodium falciparum; assay: Antiplasmodial activity against artemisinin-resistant Plasmodium falciparum 6320 assessed as reduction in parasite survival at 700 nM incubated for 6 hrs followed by compound washout thrice and further cultured in compound free medium for 66 hrs by RSA; type: functional, organism-based
[28] = system: Plasmodium falciparum; assay: as §1, with “HDAC2” for “HDAC1”; type: functional, organism-based
[29] = system: Plasmodium falciparum; assay: Inhibition of Plasmodium falciparum HDAC assessed as hyperacetylation of histone H3 at 20 times IC50 incubated for 4 hrs by Western blot analysis
[30] = system: Plasmodium berghei; assay: Antiplasmodial activity against liver stage Plasmodium berghei infected in Balb/c mouse assessed as reduction in parasitemia at 30 mg/kg, ip administered as single dose by microscopic analysis; type: functional, organism-based
[31] = Inhibition of recombinant full length C-terminal His/FLAG-tagged Plasmodium falciparum HDAC1 expressed in baculovirus infected sf9 insect cells using fluorogenic […] as substrate preincubated for 1.5 hrs followed by substrate addition and measured after 30 mins by HDAC-GloI/II assay
[32] = Apparent clearance during terminal phase in Balb/c mouse at 5 mg/kg, ip administered as single dose measured upto 24 hrs by LC-MS/MS analysis; type: ADME, organism-based; conditions: Balb/c, in vivo, read-out: CLz/F (converted)

For Cl.Cn1cc(CN2CCC3(CCN(c4ncc(C(=O)NO)cn4)CC3)C2)c2ccncc21, the CLint scaled [1] was 29.7 mL/min/kg, the half-life [2] was 3.06 h and the IC50 [3] was 4.4 nM. The IC50 [4] was 792 nM, the IC50 [5] was 3.9 nM and the selectivity ratio [6] was 265. For the same molecule, the Activity [7] was “inactive”, the selectivity ratio [8] was 180 and the IC50 [9] was 537 nM. For the same molecule, the IC50 [10] was 3 nM, the Activity [11] was “Toxic” and the IC50 [12] was 5.7 nM. The IC50 [13] was 5.6 nM, the IC50 [14] was 3.8 nM and the Activity [15] was “Non-Toxic”. For the same molecule, the IC50 [16] was 4.9 nM.

With Cl.Cn1cc(CNCC2CCN(c3ncc(C(=O)NO)cn3)CC2)c2ccccc21 [QUISINOSTAT HYDROCHLORIDE] the AUC(0-inf) [17] was 5.98 ng·h/mL, the CLint scaled [1] was 410 mL/min/kg and the Activity [18] was “Active”. For the same molecule, the Activity [19] was “Toxic”, the Activity [20] was “Active” and the Cmax [21] was 88.7 ng/mL. For the same molecule, the Vd/F [22] was 245 L/kg, the IC50 [3] was 1.7 nM and the IC50 [4] was 42 nM. The IC50 [5] was 1.62 nM, the Vz/F [23] was 4172 L/kg and the Activity [24] was “Active”. For the same molecule, the Activity [7] was “inactive”, the IC50 [9] was 48 nM and the IC50 [10] was 5.2 nM. The IC50 [25] was 12.4 nM, the IC50 [26] was 23.7 nM and the Activity [27] was “Active”. The IC50 [13] was 7.09 nM, the IC50 [28] was 17.2 nM and the inhibition [29] was “Active”. The Activity [30] was “inactive”, the IC50 [31] was 0.003 nM and the Activity [15] was “Toxic”. The CL/F [32] was 462 mL/min/kg and the IC50 [16] was 2.53 nM.
